From patent US3985878A, “Anti-inflammatory and antirheumatic compounds and preparation” (priority 1974, dated 1976)
Where “and” joins values, the source holds several entries; their conditions need not be identical. Identical values can stand only once. Counter-ions that a name gives are not always drawn. Like-named read-outs stand apart in the source and are kept apart here.

Columns and labels:
[1] = Irritant and ulceroid (gastrolesive) activity on the gastric mucosa; conditions: in vivo, rat
Method: 4. Irritant and ulceroid activity on the gastric mucosa
The experimental evaluation of this activity was made on rats, by the method here reported:
The compound is administered orally to rats which have fasted for 12 hours, the animals being killed 4 hours after the administration.
Regarded as positive, i.e. with stomach damage, are those animals which have at least one haemorrhage point on the stomach wall.
By ED50 there is meant that dose of the drug which can […] in 50% of the animals treated, the formation of these haemorrhages.
In Table 6 there are compared CR 604 and Indometacin, since the latter is, amongst them all, the nearest to the anti-inflammatory activity values of CR 604.

[2] = Anti-inflammatory activity, paw test (Domenjoz test); assay type: in vivo, rat; conditions: read-out: ED50 per os, acute anti-inflammatory activity (Domenjoz test)
Method: 1a. Anti-inflammatory activity: this activity was measured by the paw test according to Doemnjoz, characterised in its carrying out by the following method:
To young rats of medium weight of 200 g there is administered by hypodermic injection into the right paw an aqueous suspension of carragheen at 1%, 1 hour after the oral administration of the drugs under investigation.
After two hours from the administration of the carragheen, the pawas are disjointed, weighed, and comparison is made between the injected paw, meanwhile swollen, and the paw not interfered with.
This evaluation is expressed both in mg/kg of animal weight and in micromoles/Kg of weight of the animal.

Solubility = assay type: physicochemical
urinary calcium = assay type: in vivo, human
Method: (§1) Thus for example comparing CR 604 administered in capsules of 75 mg (6 per day), with Indometacin in capsules of 25 mg (6 per day), i.e. in approximately equimolecular doses on a group of 60 subjects treated (30 with CR 604 and 30 with Indometacin, one notes that (see Table 7):
c. […] Excretion of calcium is related to the destruction of the fibrils of the proteic bone matrix which thus also loses the calcium deposited upon it.
The administration of known anti-inflammatories brings about the lysis of these fibrils with loss of calcium.

[3] = assay type: in vivo, human; conditions: for gastric disturbances (subjects treated): Indometacin capsules of 25 mg
Method: Thus for example comparing CR 604 administered in capsules of 75 mg (6 per day), with Indometacin in capsules of 25 mg (6 per day), i.e. in approximately equimolecular doses on a group of 60 subjects treated (30 with CR 604 and 30 with Indometacin, one notes that (see Table 7): […]

uropepsinogene = assay type: in vivo, human
Method: as §1
Gastric secretion of pepsin is increased by agents which irritate and damage the gastric mucosa.

[4] = Pellets-induced granuloma test (cotton pellets); assay type: in vivo, rat; conditions: read-out: ED50 per os, acute anti-inflammatory activity (granuloma test)
Method: 1b. Pellets-induced granuloma test:
Another important test for the evaluation of an anti-inflammatory is that of cotton pellets. This consists of planting a sterile cotton pellet under the rat's back skin.
This pellet is left in situ for a week while the animals are treated daily with various doses of the drug being examined. Evaluation is effected by weighing the pellets taken at the given time and dried, comparing the weight of those of the treated animals with the checks.

fibroblast culture = test: Production of mucopolysaccharides from fibroblast culture in vitro; assay type: cell-based; conditions: Fibroblast, 240 h, read-out: Mucopolysaccharide products at the tenth day of incubation; for activity at 10 µg/mL: 10 μg/ml of culture liquid
Method: a. Tests in vitro: These tests consist of the cultivation in vitro, i.e., outside the organism, of tissue of the same embriological origin in relation to the osteoarticular. Upon the growth of this tissue there is then measured the activities of the various drugs. The units of measurement of these activities is the production of glucosaminoglicanes (mucopolysaccharides measured by the turbidimetric method).
The compounds which form the subject of this invention were evaluated according to this test and compared with known anti-inflammatories.

[5] = Osteolathyrism in the rabbit (aminoacetonitrile); assay type: in vivo; conditions: for Deformed gait of back legs / Deformed gait of front legs / General Condition of Animal / Loss of fur / Loss of weight / Ptosis of auricular pavilion: score 0 (no damage) to 4 (maximum damage), 25 days
Method: B. Tests in vivo: Osteolathyrism in the rabbit.
Osteolathrism consists of inducing into young rabbits a dystrophy of the bone joint system, administering every day aminoacetonitrile by i.p. means, in the quantity of 100 mg/kg of body weight. With this treatment, in about 30 days, the following changes are shown in the rabbit:
Loss of weight (related to the checks physiologically treated), ptosis of the auricular pavilion, loss of fur, deformation of the front and rear limbs, deterioration of the general condition.
All this takes place because the aminoacetonitrile is a collagen tissue poison which changes the biochemical composition of the joint cartilages and the bones.
An evaluation of the therapeutic activity can be made either by biochemical evaluation, i.e. by measuring the quantity of aminosugars in these tissues, or by considering only the general symptoms, which are proportional to the diminution of the aminosugars.
In Table 5 this latter evaluation is reported, in which every symptom was evaluated by allotting it a number from 0 to 4, 4 indicating the maximum amount of damage and 0 indicating no damage.
On Table 5 there are given the results of treatment evaluated on the 25th day, comparing the groups treated only with a physiological solution, only with aminoacetonitrile, with aminoacetonitrile and CR 604, with aminoacetonitrile and Indometacin in the prescribed doses.
Each group consisted of 8 animals.

[6] = Analgesic activity, phenylquinone test; assay type: in vivo, rat; conditions: read-out: ED50 per os, analgesic activity (phenylquinone test)
Excerpt: 2. Analgesic activity: The analgesic activity of an anti-inflammatory can be examined traditionally by the phenylquinone method based on the fact that intra-peritoneal administration to a rat of an irritant substance such as phenylquinone induces vocal reactions ("squirring") in the animal.
From the number of these reactions one judges the pain sensitivity.

[7] = oral, fasted 12 hours, killed 4 hours after administration, read-out: ED50 gastrolesive
[8] = rat, oral 1 hour before carragheen 1%, paws weighed after two hours
[9] = after one week, CR 604 75 mg or Indometacin 25 mg capsules, 6 per day
[10] = after three weeks, CR 604 75 mg or Indometacin 25 mg capsules, 6 per day
[11] = 5 mg/kg/day i.p. + aminoacetonitrile 100 mg/kg/day
[12] = 15 mg/kg/day i.p. + aminoacetonitrile 100 mg/kg/day

CCCN(CCC)C(=O)C(CCC(=O)OCCCN1CCN(CCCOC(=O)Cc2c(C)n(C(=O)c3ccc(Cl)cc3)c3ccc(OC)cc23)CC1)NC(=O)c1ccccc1 (racemic) [CR 613 (di-maleate), N'-3-[1(p-chlorobenzoyl)-5-methoxy-2-methyl-3-indoleacetoxy]-propyl-N-3-(N-benzoyl-N',N'-di-n-propyl-DL-isoglutaminoyl)-oxypropyl-piperazine]
TD50 at 4 h [1, 7]: 277 µmol/kg
TD50 at 4 h ([1]; po): 303 mg/kg
ED50 [2, 8]: 13.6 µmol/kg and 14.9 mg/kg
solubility in acetone (Solubility): slightly soluble
solubility in ethanol (Solubility): slightly soluble
solubility in methanol (Solubility): more soluble
solubility in water, in words (Solubility; water): Insoluble

COc1ccc2c(c1)c(CC(=O)O)c(C)n2C(=O)c1ccc(Cl)cc1 [Indometacin]
Urinary calcium (urinary calcium; [9]): 137 mg/1000 cc of urine
Urinary calcium (urinary calcium; [10]): 148 mg/1000 cc of urine
Urinary calcium (urinary calcium; before treatment): 126 mg/1000 cc of urine
excretion of urinary calcium, in words (urinary calcium; human): tendency to an increase
gastric disturbances (subjects treated) ([3]; after 1 week of treatment, 6 per day): 46.6%
gastric disturbances (subjects treated) ([3]; after 3 weeks of treatment, 6 per day): 53.3%
Epigastric pain ([3]; after 3 weeks, CR 604 75 mg or Indometacin 25 mg capsules, 6 per day): 53.3 % of patients in pain
Epigastric pain [3, 9]: 46.6 % of patients in pain
Epigastric pain ([3]; before treatment): 0 % of patients in pain
Uropepsinogene (uropepsinogene; [9]): 208.1 equivalent mg of tyrosine per
Uropepsinogene (uropepsinogene; [10]): 345.7 equivalent mg of tyrosine per
Uropepsinogene (uropepsinogene; before treatment): 164.7 equivalent mg of tyrosine per
uropepsinogene in urine, in words (uropepsinogene; human): increases
TD50 at 4 h [1, 7]: 33.5 µmol/kg and 12 mg/kg
gastrolesive dose, in words ([1]; po): very low
ED50 ([2]; Rattus norvegicus, po): 17.3 µmol/kg and 6.2 mg/kg
ED50 ([4]; Rattus norvegicus, po): 23.5 µmol/kg and 8.41 mg/kg
activity at 2 µg/mL (fibroblast culture): 78%
effect on aminoacetonitrile symptoms, in words ([5]; rabbit): cannot prevent the occurrence of these conditions
Deformed gait of back legs [5, 11]: 1.6
Deformed gait of front legs [5, 11]: 3.2
General Condition of Animal [5, 11]: 3.8
Loss of fur [5, 11]: 3
Loss of weight [5, 11]: 3.5
Ptosis of auricular pavilion [5, 11]: 1.4
ED50 ([6]; Rattus norvegicus, po): 5.6 µmol/kg and 2 mg/kg

CCCN(CCC)C(=O)C(CCC(=O)OCCCN1CCN(CCOC(=O)Cc2c(C)n(C(=O)c3ccc(Cl)cc3)c3ccc(OC)cc23)CC1)NC(=O)c1ccccc1 (racemic) [CR 604 (di-maleate), N'-2-[1-(p-chlorobenzoyl)-5-methoxy-2-methyl-3-indoleacetoxy]ethyl-N-3-(N-benzoyl-N', N'-di-n-propyl-DL-isoglutaminoyl)-oxypropyl-piperazine]
Urinary calcium (urinary calcium; in vivo): 132 mg/1000 cc of urine
Epigastric pain ([3]; in vivo): 0 % of patients in pain
Uropepsinogene (uropepsinogene; in vivo): 216.3 equivalent mg of tyrosine per
TD50 at 4 h [1, 7]: 330 µmol/kg
TD50 at 4 h ([1]; po): 355 mg/kg
ED50 [2, 8]: 11.5 µmol/kg and 12.3 mg/kg
ED50 ([4]; rat, oral, daily for a week): 25.6 µmol/kg and 27.6 mg/kg
activity at 6 µg/mL (fibroblast culture; 6 μg/ml of culture liquid): 108%
solubility in acetone (Solubility): slightly soluble
solubility in ethanol (Solubility): slightly soluble
solubility in methanol (Solubility): more soluble
solubility in water, in words (Solubility; water): Insoluble
Deformed gait of back legs [5, 12]: 0.6
Deformed gait of front legs [5, 12]: 0
General Condition of Animal [5, 12]: 0.2
Loss of fur [5, 12]: 0
Loss of weight [5, 12]: 0
Ptosis of auricular pavilion [5, 12]: 0.2
ED50 ([6]; rat, oral): 5.3 µmol/kg and 5.72 mg/kg

CCCN(CCC)C(=O)C(CCC(=O)OCCCN1CCN(CCOC(=O)Cc2c(C)n(C(=O)c3ccc(Cl)cc3)c3ccc(OC)cc23)CC1)NC(=O)c1ccccc1 (racemic) [CR 604 di-hydrochloride, N'-2-[1-(p-chlorobenzoyl)-5-methoxy-2-methyl-3-indoleacetoxy]ethyl-N-3-(N-benzoyl-N', N'-di-n-propyl-DL-isoglutaminoyl)-oxypropyl-piperazine]
solubility in acetone (Solubility): Fairly soluble
solubility in ethanol (Solubility): Soluble
solubility in methanol (Solubility): Soluble
solubility in water, in words (Solubility; water): Hardly soluble
solubility (Solubility; water, 25°): ~5000 µg/mL

CCCN(CCC)C(=O)C(CCC(=O)OCCN1CCN(CCOC(=O)Cc2c(C)n(C(=O)c3ccc(Cl)cc3)c3ccc(OC)cc23)CC1)NC(=O)c1ccccc1 (racemic) [CR 626 (di-maleate), N'-2-[1-(p-chlorobenzoyl)-5-methoxy-2-methyl-3-indoleacetoxy]-ethyl-N-2-(N-benzoyl-N',N'-di-n-propyl-D,L-isoglutaminoyl)-oxyethyl-piperazine]
TD50 at 4 h [1, 7]: 342 µmol/kg
TD50 at 4 h ([1]; po): 363 mg/kg
ED50 [2, 8]: 15 µmol/kg and 16 mg/kg
solubility in acetone (Solubility): slightly soluble
solubility in ethanol (Solubility): slightly soluble
solubility in methanol (Solubility): more soluble
solubility in water, in words (Solubility; water): Insoluble

CCCCC1C(=O)N(c2ccccc2)N(c2ccccc2)C1=O [Phenylbutazone]
ED50 [2, 8]: 464 µmol/kg and 143 mg/kg
activity at 10 µg/mL (fibroblast culture): 58%
ED50 ([6]; rat, oral): 324 µmol/kg and 100 mg/kg

CCCN(CCC)C(=O)C(CCC(=O)OCCCN1CCN(CCOC(=O)Cc2c(C)n(C(=O)c3ccc(Cl)cc3)c3ccc(OC)cc23)CC1)NC(=O)c1ccccc1 (racemic) [CR 604 dioxalate, N'-2-[1-(p-chlorobenzoyl)-5-methoxy-2-methyl-3-indoleacetoxy]ethyl-N-3-(N-benzoyl-N', N'-di-n-propyl-DL-isoglutaminoyl)-oxypropyl-piperazine]
solubility in acetone (Solubility): slightly soluble
solubility in ethanol (Solubility): slightly soluble
solubility in methanol (Solubility): slightly soluble
solubility in water, in words (Solubility; water): Insoluble

CC(C)Cc1ccc(C(C)C(=O)O)cc1 (stereo not drawn) [Ibuprofen]
ED50 [2, 8]: 436 µmol/kg and 90 mg/kg

CC(=O)Oc1ccccc1C(=O)O [Acetylsalicylic ac.]
ED50 ([2]; Rattus norvegicus, po): 1250 µmol/kg and 226 mg/kg

Cc1cccc(Nc2ccccc2C(=O)O)c1C [Mephenamic ac.]
ED50 [2, 8]: 439 µmol/kg and 106 mg/kg
activity at 10 µg/mL (fibroblast culture): 58%
